Molecular target: T1, human mPGES-1 (Homo sapiens, UniProt O14684)
T1 sequence (O14684 1-152): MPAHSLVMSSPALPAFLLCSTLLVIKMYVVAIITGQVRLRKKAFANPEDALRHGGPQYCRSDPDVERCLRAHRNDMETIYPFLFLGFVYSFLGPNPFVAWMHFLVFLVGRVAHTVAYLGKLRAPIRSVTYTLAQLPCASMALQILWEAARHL
Assay: Microsomal prostaglandin E synthase biochemical assay
Settings: microsome preparation containing human mPGES-1; PGH2 10.8 μM, GSH 2.5 mM, pH 6.8; PGE2 quantified by HTRF; average of at least n=2
Outline: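 Human mPGES-1 microsomes (from IL-1β-stimulated A549 cells or Sf9 cells expressing human mPGES-1) were pre-incubated 15 min with compound in potassium phosphate buffer pH 6.8 with GSH. PGH2 was then added, and the reaction was stopped after one minute with acidic ferric chloride/citrate. PGE2 was read by HTRF, and IC50 was taken from control-normalised activity.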

Compound | IC50
COCCOCCOc1cc(C(=O)NS(=O)(=O)c2ccccc2S(N)(=O)=O)ccc1C#CC(C)(C)C [Example 118, 4-(3,3-Dimethylbut-1-ynyl)-3-(2-(2-methoxyethoxy)ethoxy)-N-(2-sulfamoylphenyl-sulfonyl)benzamide] | 620 nM
NS(=O)(=O)c1ccccc1S(=O)(=O)NC(=O)c1ccc(-c2cccc(C(F)(F)F)c2)o1 [Example 37, N-(2-Sulfamoylphenyl)sulfonyl-5-[3-(trifluoromethyl)phenyl]furan-2-carboxamide] | 1100 nM
NS(=O)(=O)c1ccccc1S(=O)(=O)NC(=O)c1ccc(C#CC2CC2)c(OCCC(F)(F)F)c1 [Example 160, 4-(Cyclopropylethynyl)-N-(2-sulfamoylphenylsulfonyl)-3-(3,3,3-trifluoropropoxy)-benzamide] | 32 nM
NS(=O)(=O)c1ccccc1S(=O)(=O)NC(=O)c1ccc2[nH]c(Cc3ccccc3)cc2c1 [Example 158, 2-Benzyl-N-(2-sulfamoylphenylsulfonyl)-1H-indole-5-carboxamide] | 580 nM
NS(=O)(=O)c1ccccc1S(=O)(=O)NC(=O)c1ccc(-c2ccccc2)cc1 [Example 31, 4-Phenyl-N-(2-sulfamoylphenyl)sulfonyl-benzamide] | 320 nM
NS(=O)(=O)c1ccccc1S(=O)(=O)NC(=O)c1ccc(-c2cc3ccccc3o2)cc1Cl [Example 91, 4-(Benzofuran-2-yl)-2-chloro-N-(2-sulfamoylphenylsulfonyl)benzamide] | 120 nM
COC(C)(C)c1cc2cc(C(=O)NS(=O)(=O)c3ccccc3S(N)(=O)=O)ccc2o1 [Example 125, 2-(2-Methoxypropan-2-yl)-N-(2-sulfamoylphenylsulfonyl)benzofuran-5-carboxamide] | 12000 nM
CC(C)(C)C#Cc1ccc(C(=O)NS(=O)(=O)c2ccccc2S(N)(=O)=O)nc1 [Example 89, 5-(3,3-Dimethylbut-1-ynyl)-N-(2-sulfamoylphenylsulfonyl)picolinamide] | 1200 nM
CCCc1c(C(=O)NS(=O)(=O)c2ccccc2S(N)(=O)=O)cnn1-c1cc(Cl)cc(Cl)c1 [Example 38, 1-(3,5-Dichlorophenyl)-5-propyl-N-(2-sulfamoylphenyl)sulfonyl-pyrazole-4-carboxamide] | 1500 nM
NS(=O)(=O)c1ccccc1S(=O)(=O)NC(=O)c1ccc(C#CC2CCCC2)cc1 [Example 65, 4-(Cyclopentylethynyl)-N-(2-sulfamoylphenylsulfonyl)benzamide] | 14 nM
CC(C)(C)C#Cc1ccc(C(=O)NS(=O)(=O)c2ccccc2S(N)(=O)=O)cc1 [Example 43, 4-(3,3-Dimethylbut-1-ynyl)-N-(2-sulfamoylphenylsulfonyl)benzamide] | 28 nM
Cc1nc(-c2ccc(Cl)cc2)sc1C(=O)NS(=O)(=O)c1ccccc1S(N)(=O)=O [Example 28, 2-(4-Chlorophenyl)-4-methyl-N-(2-sulfamoylphenyl)sulfonyl-1,3-thiazole-5-carboxamide] | 44 nM
NS(=O)(=O)c1ccccc1S(=O)(=O)NC(=O)c1ccc(OCc2ccccc2)cc1 [Example 30, 4-Phenylmethoxy-N-(2-sulfamoylphenyl)sulfonyl-benzamide] | 160 nM
NS(=O)(=O)c1ccccc1S(=O)(=O)NC(=O)CC12CC3CC(CC(C3)C1)C2 [Example 16, 2-(1-Adamantyl)-N-(2-sulfamoylphenyl)sulfonyl-acetamide] | 5200 nM
CC(C)(C)C#Cc1ccc(C(=O)NS(=O)(=O)c2ccccc2S(N)(=O)=O)c(C(F)(F)F)c1 [Example 151, 4-(3,3-Dimethylbut-1-ynyl)-N-(2-sulfamoylphenylsulfonyl)-2-(trifluoromethyl)-benzamide] | 380 nM
COc1cccc(-c2cc3cc(C(=O)NS(=O)(=O)c4ccccc4S(N)(=O)=O)ccc3o2)c1 [Example 74, 2-(3-Methoxyphenyl)-N-(2-sulfamoylphenylsulfonyl)benzofuran-5-carboxamide] | 24 nM
CC(C)Oc1cc(C(=O)NS(=O)(=O)c2ccccc2S(N)(=O)=O)cnc1C#CC1CCCCC1 [Example 144, 6-(Cyclohexylethynyl)-5-isopropoxy-N-(2-sulfamoylphenylsulfonyl)nicotinamide] | 11 nM
NS(=O)(=O)c1ccccc1S(=O)(=O)NC(=O)c1ccc(C#CC2CCCC2)nc1 [Example 93, 6-(Cyclopentylethynyl)-N-(2-sulfamoylphenylsulfonyl)nicotinamide] | 58 nM
C=C(C)C#Cc1ccc(C(=O)NS(=O)(=O)c2ccccc2S(N)(=O)=O)cc1 [Example 54, 4-(3-Methylbut-3-en-1-ynyl)-N-(2-sulfamoylphenylsulfonyl)benzamide] | 62 nM
CC(C)(C)C#Cc1ccc(C(=O)NS(=O)(=O)c2ccccc2S(N)(=O)=O)c2ccccc12 [Example 61, 4-(3,3-Dimethylbut-1-ynyl)-N-(2-sulfamoylphenylsulfonyl)-1-naphthamide] | 99 nM
